# Assay results published in ChEMBL document CHEMBL3621204, “Dual biological functions of the apoptotic activity and anti-inflammatory effect by alcyonolide congeners from the Okinawan soft coral, Cespitularia sp” (Bioorg Med Chem Lett, 2015).
# pIC50: −log10 of the molar value. The source made the active and inactive calls. The calls are words filed in the database; no cut-off is given here.
# What was measured:
# [1] = system: RAW264.7; experiment: Antiinflammatory activity in mouse RAW264.7 cells assessed as inhibition in LPS-stimulated nitric oxide production; assay type: functional, cell-based
# [2] = system: HCT-116; experiment: Cytotoxicity against human HCT116 cells; assay type: functional, cell-based
# [3] = system: HCT-116; experiment: Induction of apoptosis in human HCT116 cells assessed as activation of caspase 3/7 at 2.5 to 20 uM after 2 hrs 30 mins by luciferase reporter assay; assay type: functional, cell-based
# [4] = system: HCT-116; experiment: Induction of apoptosis in human HCT116 cells assessed as nuclear condensation at 100 uM by fluorescence assay; assay type: functional, cell-based
# [5] = system: RAW264.7; experiment: Cytotoxicity against LPS/IFN-gamma stimulated mouse RAW264.7 cells assessed as cell survival at 2 to 8 uM by MTT assay; assay type: cell-based; settings: raw264.7, 8 µM
# [6] = system: RAW264.7; experiment: Anti-inflammatory activity in mouse RAW264.7 cells assessed as inhibition of LPS/IFN-gamma-stimulated iNOS mRNA expression by RT-PCR analysis; assay type: functional, cell-based
# [7] = system: RAW264.7; experiment: Anti-inflammatory activity in mouse RAW264.7 cells assessed as inhibition of LPS/IFN-gamma-stimulated iNOS mRNA expression at 2 uM by RT-PCR analysis (reference value: 28.91 ng/uL); assay type: functional
# [8] = system: RAW264.7; experiment: Anti-inflammatory activity in mouse RAW264.7 cells assessed as inhibition of LPS/IFN-gamma-stimulated iNOS mRNA expression at 4 uM by RT-PCR analysis (reference value: 28.91 ng/uL); assay type: functional
# [9] = system: RAW264.7; experiment: Anti-inflammatory activity in mouse RAW264.7 cells assessed as inhibition of LPS/IFN-gamma-stimulated iNOS mRNA expression at 8 uM by RT-PCR analysis (reference value: 28.91 ng/uL); assay type: functional
# [10] = system: RAW264.7; experiment: Anti-inflammatory activity in mouse RAW264.7 cells assessed as inhibition of LPS/IFN-gamma-stimulated COX2 mRNA expression by RT-PCR analysis; assay type: functional, cell-based
# [11] = system: RAW264.7; experiment: Anti-inflammatory activity in mouse RAW264.7 cells assessed as inhibition of LPS/IFN-gamma-stimulated COX2 mRNA expression at 2 uM by RT-PCR analysis (reference value: 54.51 ng/uL); assay type: functional
# [12] = system: RAW264.7; experiment: Anti-inflammatory activity in mouse RAW264.7 cells assessed as inhibition of LPS/IFN-gamma-stimulated COX2 mRNA expression at 4 uM by RT-PCR analysis (reference value: 54.51 ng/uL); assay type: functional
# [13] = system: RAW264.7; experiment: Anti-inflammatory activity in mouse RAW264.7 cells assessed as inhibition of LPS/IFN-gamma-stimulated COX2 mRNA expression at 8 uM by RT-PCR analysis (reference value: 54.51 ng/uL); assay type: functional
SMILES,inhibition [1],pIC50 [2],Activity [3],Activity [4],Activity [5],inhibition [6],Activity [7] [ng/µL],Activity [8] [ng/µL],Activity [9] [ng/µL],inhibition [10],Activity [11] [ng/µL],Activity [12] [ng/µL],Activity [13] [ng/µL]
O=C1c2c(O)cc(O)cc2O[C@H](c2ccc(O)cc2)[C@H]1O,Dose-dependent effect,,,,,,,,,,,,
C=C(CCCC(C)=O)[C@@H]1[C@@H](OC(C)=O)OC=C2[C@H](CC=C(C)C)OC(=O)C[C@H]21,Dose-dependent effect,5.23,Active,Active,Non-toxic,Dose-dependent effect,24.62,10.94,8.25,Dose-dependent effect,37.36,21.48,13.75
C=CC(=C)[C@@H]1[C@@H](OC(C)=O)OC=C2[C@H](CC=C(C)C)OC(=O)C[C@H]21,Dose-dependent effect,5.22,Active,Active,Non-toxic,Dose-dependent effect,20.66,12.44,6.58,Dose-dependent effect,37.1,31.77,15.93
